This is an account of results in ChEMBL document CHEMBL3758083, “Design and discovery of 4-anilinoquinazoline-acylamino derivatives as EGFR and VEGFR-2 dual TK inhibitors” (Eur J Med Chem, 2016).

pIC50: −log10 of the molar value.

For experiment [1], the target named is Epidermal growth factor receptor (Homo sapiens, UniProt P00533). The experiment is described as follows: Inhibition of human EGFR preincubated for 10 mins followed by addition of FAM-labeled peptide and incubated for 10 mins by Caliper motility shift assay.
Chain of Epidermal growth factor receptor (P00533 whole entry): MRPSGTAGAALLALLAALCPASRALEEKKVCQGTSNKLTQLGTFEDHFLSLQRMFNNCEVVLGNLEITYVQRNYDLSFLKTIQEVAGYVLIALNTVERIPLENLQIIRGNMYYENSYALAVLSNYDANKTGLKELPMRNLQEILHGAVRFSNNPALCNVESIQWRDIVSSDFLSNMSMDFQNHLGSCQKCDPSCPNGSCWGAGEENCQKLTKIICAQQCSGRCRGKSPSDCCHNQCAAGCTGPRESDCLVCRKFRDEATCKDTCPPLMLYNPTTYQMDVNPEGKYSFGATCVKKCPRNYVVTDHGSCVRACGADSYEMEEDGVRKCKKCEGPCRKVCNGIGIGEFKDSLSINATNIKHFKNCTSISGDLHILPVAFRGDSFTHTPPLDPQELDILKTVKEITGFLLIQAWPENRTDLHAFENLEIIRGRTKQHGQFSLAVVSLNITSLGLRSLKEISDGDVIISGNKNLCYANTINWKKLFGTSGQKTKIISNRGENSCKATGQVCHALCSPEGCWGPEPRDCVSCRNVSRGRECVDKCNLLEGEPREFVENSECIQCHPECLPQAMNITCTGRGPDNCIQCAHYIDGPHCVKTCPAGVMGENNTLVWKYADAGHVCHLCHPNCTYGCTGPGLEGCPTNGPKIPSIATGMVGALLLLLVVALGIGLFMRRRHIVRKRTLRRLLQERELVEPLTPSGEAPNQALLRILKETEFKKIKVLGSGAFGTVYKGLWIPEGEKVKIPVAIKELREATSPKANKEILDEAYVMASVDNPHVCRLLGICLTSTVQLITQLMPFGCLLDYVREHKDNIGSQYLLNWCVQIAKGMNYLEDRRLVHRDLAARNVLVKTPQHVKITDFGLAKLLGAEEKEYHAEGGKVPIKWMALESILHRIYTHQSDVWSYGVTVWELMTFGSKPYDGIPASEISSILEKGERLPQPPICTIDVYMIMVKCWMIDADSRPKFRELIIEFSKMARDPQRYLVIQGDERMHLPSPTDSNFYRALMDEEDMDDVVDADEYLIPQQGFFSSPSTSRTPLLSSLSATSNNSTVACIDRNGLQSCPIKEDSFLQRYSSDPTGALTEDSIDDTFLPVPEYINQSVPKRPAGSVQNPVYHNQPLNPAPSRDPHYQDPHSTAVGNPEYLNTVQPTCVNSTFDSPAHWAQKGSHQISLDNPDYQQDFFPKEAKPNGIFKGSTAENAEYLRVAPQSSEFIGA
For experiment [2], the target named is Vascular endothelial growth factor receptor 2 (Homo sapiens, UniProt P35968). The experiment is described as follows: Inhibition of human VEGFR-2 preincubated for 10 mins followed by addition of FAM-labeled peptide and incubated for 10 mins by Caliper motility shift assay.
Chain of Vascular endothelial growth factor receptor 2 (P35968 whole entry): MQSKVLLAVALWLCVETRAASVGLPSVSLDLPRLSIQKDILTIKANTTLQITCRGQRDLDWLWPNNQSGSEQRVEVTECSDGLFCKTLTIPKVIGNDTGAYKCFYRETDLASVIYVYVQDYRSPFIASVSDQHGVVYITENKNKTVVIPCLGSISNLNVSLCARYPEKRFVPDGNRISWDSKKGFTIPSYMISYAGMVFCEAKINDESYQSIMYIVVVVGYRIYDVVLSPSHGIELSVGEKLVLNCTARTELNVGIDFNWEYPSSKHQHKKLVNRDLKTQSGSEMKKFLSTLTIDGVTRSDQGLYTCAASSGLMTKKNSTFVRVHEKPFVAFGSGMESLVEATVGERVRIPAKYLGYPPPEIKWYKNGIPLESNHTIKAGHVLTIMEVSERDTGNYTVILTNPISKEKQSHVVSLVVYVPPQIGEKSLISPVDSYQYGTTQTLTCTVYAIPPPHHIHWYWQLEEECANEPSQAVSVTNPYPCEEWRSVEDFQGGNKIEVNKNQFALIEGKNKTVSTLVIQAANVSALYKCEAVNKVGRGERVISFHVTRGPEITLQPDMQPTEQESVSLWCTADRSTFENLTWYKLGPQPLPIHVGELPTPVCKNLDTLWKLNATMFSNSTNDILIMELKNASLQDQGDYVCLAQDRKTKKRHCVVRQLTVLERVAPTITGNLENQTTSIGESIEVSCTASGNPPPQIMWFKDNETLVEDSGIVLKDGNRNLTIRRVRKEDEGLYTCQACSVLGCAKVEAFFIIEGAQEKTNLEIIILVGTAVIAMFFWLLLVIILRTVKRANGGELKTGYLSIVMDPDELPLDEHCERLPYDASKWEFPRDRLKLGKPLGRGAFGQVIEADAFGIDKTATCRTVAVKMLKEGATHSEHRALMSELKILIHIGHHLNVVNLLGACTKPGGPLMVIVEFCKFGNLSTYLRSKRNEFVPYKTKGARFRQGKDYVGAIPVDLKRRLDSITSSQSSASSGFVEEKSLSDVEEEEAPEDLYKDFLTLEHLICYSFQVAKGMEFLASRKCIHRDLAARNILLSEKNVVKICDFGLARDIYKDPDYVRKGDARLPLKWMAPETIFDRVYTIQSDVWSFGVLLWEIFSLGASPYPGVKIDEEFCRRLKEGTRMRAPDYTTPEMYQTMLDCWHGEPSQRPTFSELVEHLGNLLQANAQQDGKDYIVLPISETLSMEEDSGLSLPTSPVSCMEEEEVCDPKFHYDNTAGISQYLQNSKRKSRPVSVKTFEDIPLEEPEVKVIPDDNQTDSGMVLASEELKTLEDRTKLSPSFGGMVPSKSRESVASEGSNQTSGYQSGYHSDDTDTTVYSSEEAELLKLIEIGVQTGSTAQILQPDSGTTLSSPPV
In experiment [3] the test system is HT-29. The experiment is described as follows: Antiproliferative activity against human HT-29 cells after 48 hrs by MTT assay. In kind it is functional, cell-based. As to conditions: HT-29, 48 h. For orientation: Formazan colour is commonly taken as a measure of viable cells.
Experiment [4] relates to NCI-H460. Briefly: Antiproliferative activity against human NCI-H460 cells after 48 hrs by MTT assay. In kind it is functional, cell-based. The note with it: NCI-H460, 48 h.
Experiment [5] relates to MCF7. Briefly: Antiproliferative activity against human MCF7 cells after 48 hrs by MTT assay. The note with it: MCF7, 48 h. In kind it is functional, cell-based.

Regarding `COc1cc2c(Nc3ccc(NC(=O)c4ccc(Cl)cc4)cc3)ncnc2cc1OCc1ccccc1`, the pIC50 was below 5.00 in experiment [1]; below 5.00 in experiment [2]; below 4.00 in experiment [3]; 4.68 in experiment [4]; 4.25 in experiment [5].
For `COc1cc2c(Nc3ccc(NC(=O)c4ccc(C)cc4)cc3)ncnc2cc1OCCN1CCCCC1`, the pIC50 in experiment [1] was below 5.00; in experiment [2], 5.61; in experiment [3] it was 5.16.
Regarding `COc1cc2c(Nc3ccc(NC(=O)c4ccc(C)cc4)cc3)ncnc2cc1OCCCN1CCN(C)CC1`, the pIC50 in experiment [1] was 6.16; in experiment [2], 6.06; in experiment [3], 4.77; in experiment [4] it was 4.92; in experiment [5], 4.60.
For `COc1cc2c(Nc3ccc(NC(=O)c4cccc(Cl)c4)cc3)ncnc2cc1OCCCN1CCN(C)CC1`, the negative-log IC50 (pIC50) is 6.82 in experiment [1]; 5.74 in experiment [2]; 5.28 in experiment [3]; 4.92 in experiment [4]; 5.36 in experiment [5].
For `COc1cc2c(Nc3ccc(NC(=O)c4ccc(Cl)cc4)cc3)ncnc2cc1OCCN1CCCCC1`, in that order: below 5.00, 5.38, 5.29, 4.80 and 7.00.
`COc1cc2c(Nc3ccc(NC(=O)c4ccc(C)cc4)cc3)ncnc2cc1OCCCN1CCOCC1`: the pIC50 in experiment [1] is 6.12; in experiment [2], 5.70; in experiment [3], 4.05; in experiment [5], 4.42.
For `COc1cc2c(Nc3ccc(NC(=O)c4ccc(C)cc4)cc3)ncnc2cc1OCc1ccccc1`, the negative logarithm of the IC50 (pIC50) in experiment [1] is below 5.00; in experiment [2], below 5.00; in experiment [3], below 4.00; in experiment [4], 4.34; in experiment [5], below 4.00.
`COc1cc2c(Nc3ccc(NC(=O)c4cccc(Cl)c4)cc3)ncnc2cc1OCCCN1CCOCC1`: the pIC50 in experiment [1] is 6.64; in experiment [2], 5.52; in experiment [3], 4.67; in experiment [5], 5.11.
Consider `COc1cc2c(Nc3ccc(NC(=O)c4ccccc4)cc3)ncnc2cc1OCCCN1CCN(C)CC1`, for which the negative-log IC50 (pIC50) in experiment [2] was 6.25; in experiment [3], 4.51; in experiment [4], 4.56; in experiment [5], 4.41.
With `COc1cc2c(Nc3ccc(NC(=O)c4ccccc4)cc3)ncnc2cc1OCCN1CCCCC1`, the pIC50 in experiment [1] is 5.34; in experiment [2], 5.33; in experiment [3] it was 4.58; in experiment [4], 4.52; in experiment [5], 4.44.
As for `COc1cc2c(Nc3ccc(NC(=O)c4ccccc4Cl)cc3)ncnc2cc1OCCCN1CCN(C)CC1`, the pIC50 is 7.70 in experiment [1]; 5.77 in experiment [2]; 4.64 in experiment [3]; 4.44 in experiment [4]; 4.81 in experiment [5].
For `COc1cc2c(Nc3ccc(NC(=O)c4ccccc4Cl)cc3)ncnc2cc1OCc1ccccc1`, in that order: 6.14, below 5.00, below 4.00, 4.55 and 4.11.
Take `COc1cc2c(Nc3ccc(NC(=O)c4cccc(Cl)c4)cc3)ncnc2cc1OCc1ccccc1`: the pIC50 in experiment [1] was below 5.00; in experiment [2], below 5.00; in experiment [4], 4.90; in experiment [5] it was below 4.00.
For `COc1cc2c(Nc3ccc(NC(=O)c4ccccc4)cc3)ncnc2cc1OCc1ccccc1`, the pIC50 in experiment [1] is below 5.00; in experiment [2] it was below 5.00; in experiment [3], 5.13; in experiment [4], 4.21; in experiment [5], below 4.00.
Turning to `COc1cc2c(Nc3ccc(NC(=O)c4ccc(Cl)cc4)cc3)ncnc2cc1OCCCN1CCOCC1`, the negative logarithm of the IC50 (pIC50) in experiment [1] is 5.87; in experiment [2], 5.58; in experiment [3] it was 5.03; in experiment [4], 5.10; in experiment [5], 4.40.
With `COc1ccc(C(=O)Nc2ccc(Nc3ncnc4cc(OCCCN5CCN(C)CC5)c(OC)cc34)cc2)cc1`, the pIC50 in experiment [1] is 5.95; in experiment [2] it was 5.69; in experiment [3], 4.66; in experiment [4], 5.02; in experiment [5] it was 4.61.
`COc1cc2c(Nc3ccc(NC(=O)c4cccc(Cl)c4)cc3)ncnc2cc1OCCN1CCCCC1`: the pIC50 is 6.52 in experiment [1], 5.70 in experiment [2], 5.10 in experiment [3] and 5.36 in experiment [5].
Take `COc1ccc(C(=O)Nc2ccc(Nc3ncnc4cc(OCc5ccccc5)c(OC)cc34)cc2)cc1`: the pIC50 was below 5.00 in experiment [1], below 5.00 in experiment [2], below 4.00 in experiment [3] and 4.79 in experiment [4].
With `COc1cc2c(Nc3ccc(NC(=O)c4ccc(Cl)cc4)cc3)ncnc2cc1OCCCN1CCN(C)CC1`, the negative logarithm of the IC50 (pIC50) was 5.88 in experiment [1]; 5.73 in experiment [2]; 5.26 in experiment [3]; 4.58 in experiment [4]; 4.27 in experiment [5].

A word on the pIC50: it is the negative decadic logarithm of the IC50, by convention in mol/L.
